{"source": "paper PMC11620503", "about": "(Antimicrobial Agents and Chemotherapy, 2024)", "key": {"[1]": {"system": "A. baumannii CDC-83 (NDM-1, OXA-23, 69)", "assay": "MIC, broth microdilution", "type": "cell-based, Acinetobacter baumannii", "conditions": "agent alone"}, "[2]": {"system": "isolates of E. coli with NDM and PBP3 mutations", "assay": "MIC, broth microdilution", "type": "cell-based", "conditions": "Escherichia coli, read-out: median MICs"}, "KPC-2": {"target": "KPC-2 (Klebsiella pneumoniae, UniProt Q9F663)", "assay": "Ki app determination (Waley's method)"}, "[3]": {"system": "Clostridioides difficile ATCC 43255", "assay": "MIC, agar dilution, reference strains of anaerobic bacteria", "type": "cell-based", "conditions": "ATCC43255"}, "[4]": {"system": "Prevotella buccae KUB2992", "assay": "MIC, agar dilution, reference strains of anaerobic bacteria", "type": "cell-based", "conditions": "Segatella buccae"}, "[5]": {"system": "Peptoniphilus asaccharolyticus ATCC 14963", "assay": "MIC, agar dilution, reference strains of anaerobic bacteria", "type": "cell-based", "conditions": "ATCC14963"}, "[6]": {"target": "class D carbapenemases, OXAs from Acinetobacter spp., and OXA-48", "assay": "Ki app determination, range over enzymes", "conditions": "read-out: Ki app, range; range over OXAs from Acinetobacter spp. and OXA-48"}, "CTX-M-15": {"target": "CTX-M-15 (Escherichia coli, UniProt Q9EXV5)", "assay": "Ki app determination (Waley's method)"}, "CTX-M-27": {"target": "CTX-M-27 (Escherichia coli, UniProt Q840M4)", "assay": "Ki app determination (Waley's method)"}, "VIM-1": {"target": "VIM-1 (Pseudomonas aeruginosa, UniProt A0A0F7KYQ8)", "assay": "Ki app determination (Waley's method)"}, "[7]": {"system": "Prevotella histicola KUB2989", "assay": "MIC, agar dilution, reference strains of anaerobic bacteria", "type": "cell-based"}, "OXA-48": {"target": "OXA-48 (Klebsiella pneumoniae, UniProt Q6XEC0)", "assay": "Ki app determination (Waley's method)"}, "[8]": {"system": "Propionibacterium acnes ATCC 11827", "assay": "MIC, agar dilution, reference strains of anaerobic bacteria", "type": "cell-based", "conditions": "Cutibacterium acnes, ATCC11827"}, "CTX-M-14": {"target": "CTX-M-14 (Escherichia coli, UniProt Q9L5C7)", "assay": "Ki app determination (Waley's method)"}, "NDM-1": {"target": "NDM-1 (Klebsiella pneumoniae, UniProt C7C422)", "assay": "Ki app determination (Waley's method)"}, "[9]": {"system": "Peptostreptococcus anaerobius ATCC 27337", "assay": "MIC, agar dilution, reference strains of anaerobic bacteria", "type": "cell-based", "conditions": "ATCC27337"}, "OXA-66": {"target": "OXA-66 (Acinetobacter baumannii, UniProt Q58XD2)", "assay": "Ki app determination (Waley's method)"}, "KPC-3": {"target": "KPC-3 (Klebsiella pneumoniae, UniProt Q9F663, H272Y)", "assay": "Ki app determination (Waley's method)"}, "SHV-5": {"target": "SHV-5 (Klebsiella pneumoniae, UniProt P0A3M1)", "assay": "Ki app determination (Waley's method)"}, "OXA-72": {"target": "OXA-72 (Acinetobacter baumannii, UniProt Q5XQU0)", "assay": "Ki app determination (Waley's method)"}, "Parvimonas micra KUB3000": {"system": "Parvimonas micra KUB3000", "assay": "MIC, agar dilution, reference strains of anaerobic bacteria", "type": "cell-based"}, "[10]": {"assay": "Free concentration of KSP-1007 at the dose effective in the infection models", "type": "in vivo, mouse", "conditions": "30 mg/kg of KSP-1007; data not shown"}, "OXA-24": {"target": "OXA-24 (Acinetobacter baumannii, UniProt Q8RLA6)", "assay": "Ki app determination (Waley's method)"}, "[11]": {"system": "Clostridium perfringens ATCC 13124", "assay": "microbe, parasite or virus in culture", "type": "cell-based", "conditions": "ATCC13124"}, "[12]": {"system": "20 anaerobic strains (including Clostridium perfringens, Atopobium rimae, Bacteroides spp., and Prevotella spp.)", "type": "cell-based"}, "SHV-12": {"target": "SHV-12 (Klebsiella pneumoniae, UniProt P0A3M1, L31Q)", "assay": "Ki app determination (Waley's method)"}, "NDM-5": {"target": "NDM-5 (Klebsiella pneumoniae, UniProt C7C422, M154L/V88L)", "assay": "Ki app determination (Waley's method)"}, "[13]": {"system": "Acinetobacter baumannii (46)", "assay": "MIC, broth microdilution", "type": "cell-based"}, "[14]": {"system": "Serine-carbapenemase-producing Enterobacterales (6)", "assay": "MIC and MBC testing", "type": "cell-based", "conditions": "6 serine-carbapenemase-producing Enterobacterales; fixed BLI concentration (μg/mL) in label"}, "[15]": {"system": "E. coli ATCC BAA-2469 (NDM-1)", "assay": "MIC, broth microdilution", "type": "cell-based, Escherichia coli"}, "[16]": {"system": "P. aeruginosa CDC-90 (KPC-5)", "assay": "MIC, broth microdilution", "type": "cell-based", "conditions": "Pseudomonas aeruginosa, agent alone"}, "[17]": {"system": "Klebsiella pneumoniae ATCC BAA-2344 (KPC-2)", "assay": "Lethal mouse model of systemic infection", "conditions": "ATCCBAA2344, in Mus musculus"}, "[18]": {"system": "A. baumannii CDC-35 (OXA-66 and OXA-72 producer)", "assay": "Neutropenic murine thigh infection model", "conditions": "MEM 50 mg/kg q3h sc for 24 h"}, "[19]": {"system": "P. aeruginosa CDC-90 (KPC-5)", "assay": "Lethal mouse model of systemic infection", "conditions": "Pseudomonas aeruginosa, in Mus musculus, sc, read-out: ED50 of MEM (95% confidence intervals)"}, "[20]": {"conditions": "CLSI breakpoints, marked c: breakpoints for β-lactam alone"}}, "note": "Where two headings read alike, the source gives them in different places.", "data": [{"smiles": "CC(C)(O/N=C(\\C(=O)N[C@@H]1C(=O)N2C(C(=O)[O-])=C(C[N+]3(CCNC(=O)c4ccc(O)c(O)c4Cl)CCCC3)CS[C@H]12)c1csc(N)n1)C(=O)O", "note": "[FDC, cefiderocol]", "values": [{"measurement": "MIC", "setting": "[1]", "result": 16, "unit": "µg/mL"}, {"measurement": "MIC", "setting": "[2]", "result": 4, "unit": "µg/mL"}]}, {"smiles": "N[C@@H](C(=O)N1CC(Oc2ccc3c(c2C(=O)O)OB(O)CC3)C1)c1c[nH]cn1", "note": "[KSP-1007, 7-({1-[(2R)-2-amino-2-(1H-imidazol-4-yl)acetyl]azetidin-3-yl}oxy)-2-hydroxy-3,4-dihydro-2H-1,2-benzoxaborinine-8-carboxylic acid]", "values": [{"measurement": "Ki", "setting": "KPC-2", "result": "1.46 ± 0.0574", "unit": "nM"}, {"measurement": "MIC", "setting": "[3]", "result": "> 256", "unit": "µg/mL"}, {"measurement": "MIC", "setting": "[4]", "result": 8, "unit": "µg/mL"}, {"measurement": "MIC", "setting": "[5]", "result": 32, "unit": "µg/mL"}, {"measurement": "Ki", "setting": "[6]", "result": "0.621 to 5.78", "unit": "nM"}, {"measurement": "Ki", "setting": "CTX-M-15", "result": "0.0664 ± 0.015", "unit": "nM"}, {"measurement": "Ki", "setting": "CTX-M-27", "result": "0.159 ± 0.0228", "unit": "nM"}, {"measurement": "Ki", "setting": "VIM-1", "result": "350 ± 45.4", "unit": "nM"}, {"measurement": "MIC", "setting": "[7]", "result": 8, "unit": "µg/mL"}, {"measurement": "Ki", "setting": "OXA-48", "result": "0.861 ± 0.0767", "unit": "nM"}, {"measurement": "MIC", "setting": "[8]", "result": 32, "unit": "µg/mL"}, {"measurement": "Ki", "setting": "CTX-M-14", "result": "0.153 ± 0.0235", "unit": "nM"}, {"measurement": "Ki", "setting": "NDM-1", "result": "126 ± 58.1", "unit": "nM"}, {"measurement": "MIC", "setting": "[9]", "result": "> 256", "unit": "µg/mL"}, {"measurement": "Ki", "setting": "OXA-66", "result": "5.78 ± 0.654", "unit": "nM"}, {"measurement": "Ki", "setting": "KPC-3", "result": "2.19 ± 0.687", "unit": "nM"}, {"measurement": "Ki", "setting": "SHV-5", "result": "127 ± 16", "unit": "nM"}, {"measurement": "Ki", "setting": "OXA-72", "result": "0.621 ± 0.0248", "unit": "nM"}, {"measurement": "MIC", "setting": "Parvimonas micra KUB3000", "result": 64, "unit": "µg/mL"}, {"measurement": "free concentration", "setting": "[10]", "result": "exceeded 8 µg/mL"}, {"measurement": "Ki", "setting": "OXA-24", "result": "1.09 ± 0.387", "unit": "nM"}, {"measurement": "MIC", "setting": "[11]", "result": 2, "unit": "µg/mL"}, {"measurement": "MICs, range", "setting": "[12]", "result": "2 to 256", "unit": "µg/mL"}, {"measurement": "Ki", "setting": "SHV-12", "result": "53.5 ± 12.2", "unit": "nM"}, {"measurement": "Ki", "setting": "NDM-5", "result": "31.6 ± 12.3", "unit": "nM"}]}, {"smiles": "C[C@@H](O)[C@H]1C(=O)N2C(C(=O)O)=C(S[C@@H]3CN[C@H](C(=O)N(C)C)C3)[C@H](C)[C@H]12", "note": "[MEM, meropenem]", "values": [{"measurement": "CLSI MIC interpretation I (intermediate)", "setting": "[13]; [20]", "result": 0, "unit": "%"}, {"measurement": "CLSI MIC interpretation R (resistant)", "setting": "[13]; [20]", "result": 100, "unit": "%"}, {"measurement": "CLSI MIC interpretation S (susceptible)", "setting": "[13]; [20]", "result": 0, "unit": "%"}, {"measurement": "MIC50", "setting": "[13]; fixed concentration (μg/mL) in label", "result": 32, "unit": "µg/mL"}, {"measurement": "MIC Range", "setting": "[14]", "result": "1 to 64", "unit": "µg/mL"}, {"measurement": "MIC", "setting": "[15]; Escherichia coli, ATCCBAA2469, Experiment 1, agent alone, read-out: MIC", "result": 32, "unit": "µg/mL"}, {"measurement": "MIC", "setting": "[15]; Experiment 2, agent alone", "result": 32, "unit": "µg/mL"}, {"measurement": "MIC", "setting": "[16]", "result": 32, "unit": "µg/mL"}, {"measurement": "ED50", "setting": "[17]; read-out: ED50 of MEM (95% confidence intervals), K. pneumoniae ATCC BAA-2344, Experiment 1, single sc dose 2 h after ip inoculation, survival day 7, dose ratio in label", "result": 205, "unit": "mg/kg"}, {"measurement": "ED50", "setting": "[17]; read-out: ED50 of MEM (95% confidence intervals), K. pneumoniae ATCC BAA-2344, Experiment 2, single sc dose 2 h after ip inoculation, survival day 7, dose ratio in label", "result": 54.8, "unit": "mg/kg"}, {"measurement": "bacterial growth in the thigh compared with the control group", "setting": "[18]", "result": "no significant reduction in bacterial growth"}, {"measurement": "ED50", "setting": "[19]", "result": 54.8, "unit": "mg/kg"}]}]}
